The values below come from patent US20070196360A1, “SUCCINIMIDE AND MALEIMIDE DERIVATIVES AND THEIR USE AS TOPOISOMERASE II CATALYTIC INHIBITORS” (TOPOTARGET A/S, priority 2001, published 2007).

For one data set, the system named is OC—NYH cells. As to the kind of experiment: Alkaline elution (single strand DNA breaks, SSBs).
The subject of data set [1] is cultured human cancer cells. Description: Clonogenic assay (cytotoxicity; antagonism of topoisomerase II poison cytotoxicity). As to conditions: for inhibition of the toxicity of the classical poisons (protection): poisons VP16, DAU, IDA; for IC50: Homo sapiens, read-out: IC50 (clonogenic assay).
Description: The information derived from the clonogenic assay is cytotoxicity.
A 3-week clonogenic assay is used. […] The number of cells is adjusted to obtain 2000 to 3000 colonies in the control dishes. Finally, the colonies are counted.
In data set [2] the target is T1, purified topoisomerase II α (Homo sapiens, UniProt P11388). Description: Decatenation assay (kDNA decatenation). The data set is classed as biochemical. An excerpt:
The decatenation assay is a direct measurement of a given compounds inhibitory action on purified topoisomerase II enzyme. The general role of the topoisomerase II enzyme in living cells is to cause decatenation of catenated DNA during cell division. If a compound is able to inhibit this decatenation, the compound is an inhibitor of the topoisomerase II enzyme. While this assay is capable of determining whether a given compound is active against topoisomerase II, information concerning the exact mode of action is not provided.
Topoisomerase II catalytic activity is measured by kDNA decatenation. ^3H labelled kDNA is isolated from Crithidia fasciculata (ATCC, Manassas, Va.) as described in (24). Briefly, relevant concentrations of the test compound in buffer (50 mM Tris-Cl, pH8, 120 mM KCl, 10 mM MgCl2, 1.0 mM ATP, […]) and purified topoisomerase II α is incubated with […] for 15 min at 37° C. in a final volume of 20 μl. After addition of stop buffer/loading dye mix (5% Sarkosyl, 0.0025% bromophenol blue, 25% glycerol), samples are loaded on 1% agarose/0.5% ethidium bromide gels and run in TBE buffer containing […] ethidium bromide at 100V for approximately 50 min and photographed under UV light. In addition, loading wells are cut out and scintillation counted to obtain numerical values. These values are then plotted against drug concentration to obtain dose-response curves enabling the determination of IC50 values for individual compounds.

The conditions of data set [3]: animal studies and patients; cited from earlier work.
Data set [4] deals with T1, purified topoisomerase II α. As to the kind of experiment: Plasmid cleavage assay. The data set is classed as biochemical. Here is the method:
The plasmid cleavage assay is capable of assessing wether a given compound stimulates topoisomerase II mediated DNA cleavage in the test tube. A modification of the protocol described in (Burden et al., 2001) is used. 350 ng purified human topoisomerase II α, 400 ng pUC18 DNA, and increasing concentrations of drugs were incubated for 6 min at 37° C. in 20 μl topoisomerase II cleavage buffer (10 mM TRIS-HCL pH 7.9, 50 mM NaCl, 50 mM KCl, 5 mM CaCl2, 1 mM EDTA, 15 μg/ml BSA and 1 mM Na2ATP, all from Sigma Chemical Co., St. Louis, Mo., USA). Next, the cleavable complex was trapped by adding 2 μl 10% SDS. After vigorous vortexing 1.5 μl 0.25 M EDTA and 2 μl proteinase K (0.8 μg/ml) in proteinase buffer (50 mM Tris-HCL pH=7.9, 1 mM CaCl2) was added and the samples vortexed. After a 30 min incubation at 45° C., 5 μl loading buffer (5% Sarkosyl, 0.0025% bromophenol blue, 25% glycerol) was added and the samples were exposed to 70° C. for 5 min. Next, samples were run through a 0.8 % agarose gel in 1× TAE buffer for three hours at 5 V/cm to separate different topological forms of plasmid DNA. Finally the gels were strained in distilled water containing 10 μg/ml ethidium bromide for 15 min followed by de-strained in distilled water for one hour before they were photographed in UV light. […] Further, compounds not capable of stimulating topoisomerase mediated DNA cleavage while being active in the decatenation assay are also classified as topoisomerase II catalytic inhibitors.

Data set [5] relates to extractable topoisomerase II in OC—NYH cells. As to the kind of experiment: Band depletion assay.
Protocol: OC—NYH cells are incubated for 1 h at 37 C in RPMI 1640 with 10% of fetal calf serum with the desired compounds for test. Thereafter, whole cell lysates were obtained at 4 C. Exponentially growing cells were harvested and washed in PBS. Cells are resuspended in 0.2 mL ELB-buffer (NaCl 0.25 M, NP40 0.1%, HEPES 50 mM, EDTA 5 mM) containing aprotinin 1 μg/ml, leupeptin 1 μg/ml, DTT 1M and PMSF 0.3 mM and lysed for 30 min. Pellets are spun down at 20000×g for 20 min. The protein concentration of the supernatants is measured, and the supernatants are diluted with an equal volume of glycerol.
After heating the nuclear extracts for 5 min at 95 C, the sample is immediately loaded on a 7% SDS-PAGE gel containing 5% glycerol. Thereafter, all steps are performed at RT. The separated proteins are transferred to Trans-Blot® Nitrocellulose, in a Mini Trans-blot® Electrophoretic Transfer Cell with 25 mM Tris, 192 mM glycine and 205 v/v methanol, pH 8.3 at 210 mA for 1 h. Membranes are blocked in 10% milk in TBS-T for 1 h and probed with either topoisomerase II as (1:1000) 1 h. Horseradish-peroxidase-conjugated donkey-antirabbit antibodies are used as secondary antibodies. The blots are developed using ECL™reagent 1 min and thereafter exposed on films for 5 min. Quantification of can be made by densitometric scanning.
The subject of data set [6] is NCI-H69, NCI-H69/DAU and NCI-H69/VP. As to the kind of experiment: Clonogenic assay on NCI-H69 and multi drug resistant derivatives. The format is cell-based, human. To be noted: NCI-H69 versus NCI-H69/DAU and NCI-H69/VP. An excerpt:
Further corroboration of catalytic inhibitory activity of compounds of formula M was found in clonogenic assays on human lung cancer cell lines H69/dau and H69/VP because no resistance to compounds of formula M was found in these cell lines which are selected to be daunorubicin and, etopside (VP-16) resistant respectively.
A 3-week clonogenic assay is used. […] Finally, the colonies are counted.

[7] abbreviates: read-out: IC50, topoisomerase II decatenation.
The mark [8] stands for this setting: etoposide 50 uM, compound between 5 and 625 uM.
Setting [9] is: FIG. 7, read-out: IC50, decatenation assay.
The mark [10] stands for this setting: compound 75 uM, daunorubicin 0.3 uM.

Molecules are shown by their SMILES. Entries after “also recorded” stand apart in the source; their conditions may differ. Where two headings read alike, the source gives them in different places. Marks after values point to notes of the source that are not given here.

T1 sequence (P11388 whole entry): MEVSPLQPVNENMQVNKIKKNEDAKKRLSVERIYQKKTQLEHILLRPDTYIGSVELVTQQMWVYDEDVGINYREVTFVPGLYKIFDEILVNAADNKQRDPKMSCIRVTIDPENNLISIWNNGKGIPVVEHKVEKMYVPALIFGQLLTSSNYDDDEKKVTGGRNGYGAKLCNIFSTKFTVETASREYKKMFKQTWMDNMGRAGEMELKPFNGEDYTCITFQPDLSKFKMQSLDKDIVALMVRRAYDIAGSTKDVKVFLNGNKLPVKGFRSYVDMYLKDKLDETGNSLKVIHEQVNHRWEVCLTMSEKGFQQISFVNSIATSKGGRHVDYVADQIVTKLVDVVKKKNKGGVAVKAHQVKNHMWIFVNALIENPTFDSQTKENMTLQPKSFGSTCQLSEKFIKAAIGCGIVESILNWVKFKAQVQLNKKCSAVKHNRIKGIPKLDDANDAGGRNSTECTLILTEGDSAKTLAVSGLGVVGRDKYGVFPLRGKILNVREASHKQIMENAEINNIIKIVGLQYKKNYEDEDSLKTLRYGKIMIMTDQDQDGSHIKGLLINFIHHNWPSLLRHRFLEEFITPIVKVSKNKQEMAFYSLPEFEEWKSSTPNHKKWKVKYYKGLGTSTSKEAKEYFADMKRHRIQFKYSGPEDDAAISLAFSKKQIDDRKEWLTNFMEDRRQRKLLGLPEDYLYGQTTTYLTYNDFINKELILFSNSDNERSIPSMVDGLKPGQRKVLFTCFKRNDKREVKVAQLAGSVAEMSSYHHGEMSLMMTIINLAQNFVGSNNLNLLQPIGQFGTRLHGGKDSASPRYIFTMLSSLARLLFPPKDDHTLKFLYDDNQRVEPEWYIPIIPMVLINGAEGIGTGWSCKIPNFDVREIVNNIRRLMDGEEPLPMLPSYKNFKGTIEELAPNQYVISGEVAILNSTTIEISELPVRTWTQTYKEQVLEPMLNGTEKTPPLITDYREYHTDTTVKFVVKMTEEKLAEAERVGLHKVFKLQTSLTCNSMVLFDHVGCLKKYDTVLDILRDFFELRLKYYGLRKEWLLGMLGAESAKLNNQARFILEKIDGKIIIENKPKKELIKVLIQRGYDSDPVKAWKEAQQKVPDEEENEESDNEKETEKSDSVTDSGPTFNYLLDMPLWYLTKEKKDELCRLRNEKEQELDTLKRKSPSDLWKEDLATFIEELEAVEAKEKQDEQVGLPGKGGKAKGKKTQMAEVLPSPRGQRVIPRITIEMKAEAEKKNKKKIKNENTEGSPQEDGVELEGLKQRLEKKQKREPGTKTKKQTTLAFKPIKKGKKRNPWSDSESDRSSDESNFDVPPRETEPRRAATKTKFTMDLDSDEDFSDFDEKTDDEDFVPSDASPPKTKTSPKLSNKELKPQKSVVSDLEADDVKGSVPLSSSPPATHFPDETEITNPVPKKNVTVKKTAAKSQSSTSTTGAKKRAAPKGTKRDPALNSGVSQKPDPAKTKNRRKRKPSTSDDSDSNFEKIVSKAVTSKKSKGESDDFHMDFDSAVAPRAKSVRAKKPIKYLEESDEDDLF

Regarding `O=C1CC(NCCNC2CC(=O)NC2=O)C(=O)N1` (stereo not shown) [I-21, N,N′-Di-(pyrrolidine-2′,5′-dione-3′-yl)-ethylene-1,2-diamine], the “effect on the VP-16 induced SSBs” value with OC—NYH cells (compound from 50-500 uM) is listed as “No effect on the VP-16”. Also, in data set [1] (compound 500 uM, VP-16 20 uM), the protection class result is reported as “+ (The + indicates, that the protection. i.e. log(number of surviving cells) is about 1.)” and the survival is recorded as at most 1%. Besides, the LD50 entry in data set [1] (compound alone) was “LD50 = 750 uM”. Further, in data set [1] (lower pH), the toxic to cells entry is on record as “pH 7.4. Tax at lower”. For the same compound, in data set [1] (pH 7.4), the toxic to cells result is “Not toxic to cells”. Also, in data set [1], the “inhibition of the toxicity of the classical poisons (protection)” value (shortened to “inhibition of the toxicity … (protection)”) is reported as “Only very weak”. For the same compound, the “concentration from which topoisomerase II decatenation is inhibited” value in data set [2] was “above 500 uM. IC50”. In data set [2] (setting [7]), the IC50 was about 800 µM.
Regarding `C[C@@H](CN1CC(=O)NC(=O)C1)N1CC(=O)NC(=O)C1` [ICRF-187, (+)-1,2-bis(3,5-dioxopiperazinyl-1-yl)propane, reference compound], the “protection against anthracycline extravasation injuries” value in data set [3] is “protected”. Moreover, the “reversal of etoposide (VP-16) induced SSBs” value in the data set with OC—NYH cells (compound 500 μM, etoposide 3 μM (FIG. 4)) is “reversal”. Further, the “inhibition of VP-16 induced SSBs” value in the data set on OC—NYH cells (compound at 200 uM) was “Effective inhibition of”. For the same compound, the protection class entry in data set [1] (compound 500 uM, idarubicin 0.01 μM) is “(IDA(0.01)+ up to (The + indicates, that the protection. i.e. log(number of surviving cells) is about 1.)”. Moreover, the survival in data set [1] (compound 500 uM, idarubicin 0.03) is at most 40% survival)*. In addition, in data set [1] (compound alone), the LD50 amounted to 750 µM. For the same compound, the toxic to cells entry in data set [1] (compound given alone) is “no toxicity and Not”. Besides, in data set [1], the “inhibition of the toxicity … (protection)” value is given as “Effective inhibitor of”. Further, in data set [4], the “antagonism of etoposide induced DNA cleavage” value is given as “cleavage. No”. Further, the “inhibition of topoisomerase II catalytic activity (decatenation), in words” value (“inhibition … in words” for short) in data set [2] was “effectively. IC50 about”. In addition, in data set [2] (setting [7]), the IC50 was about 50 µM.
With `COc1cc([C@@H]2c3cc4c(cc3[C@@H](O[C@@H]3O[C@@H]5CO[C@@H](C)O[C@H]5[C@H](O)[C@H]3O)[C@H]3COC(=O)[C@H]23)OCO4)cc(OC)c1O` [etoposide, reference compound], the “extractable amount of topoisomerase II” value in data set [5] (cells treated with 100 μM) is “clearly reduced”.
`O=C1C=CC(=O)N1` [maleimide]: the “antagonism of DNA damage induced by etoposide, daunorubicin or doxorubicin” value with OC—NYH cells was “antagonize”. In the data set with OC—NYH cells (compound at 50 uM), the “inhibition of VP-16 induced SSBs” value is listed as “antagonise; also recorded: Effective”. Also, in data set [6], the “cross resistance of MDR cell lines” value is listed as “No cross resistance”. In data set [5] (etoposide 100 μM, compound 50 μM (FIG. 10)), the “band depleting effect of etoposide” value was “completely lost”. For the same compound, in data set [1], the “antagonism of etoposide and daunorubicin mediated cytotoxicity” value was “effectively blocked”; the “inhibition of the toxicity … (protection)” value was “Effective”. Further, in data set [1] (compound 0.5 uM, DAU 0.5 uM), the survival result is on record as “up to 10%”. Also, in data set [1] (compound 0.5 uM, VP-16 20 uM), the protection class entry is listed as “(VP-16 (20 uM)+ (The + indicates, that the protection. i.e. log(number of surviving cells) is about 1.)” and the survival entry is on record as “up to 30%”. Also, in data set [1] (compound alone), the LD50 result was “LD50 4 uM”. Moreover, in data set [1] (compound given alone), the toxic to cells entry is reported as “toxic to cells in itself; also recorded: Very toxic to”. Further, the “inhibition of poison induced cell toxicity” value in data set [1] (etoposide 20 μM and daunorubicin 0.3 μM (FIG. 3)) was “strong”. Moreover, in data set [4], the “antagonism of etoposide induced DNA cleavage” value is “capable of antagonising” and the “stimulation of topoisomerase II mediated DNA cleavage” value is “does not stimulate”. Besides, the “antagonism of etoposide induced DNA cleavage” value in data set [4] (setting [8]) was “Strong”. Moreover, in data set [2], the “inhibition … in words” value was “Very potent,”. Also, the IC50 in data set [2] (setting [9]) was about 2 µM. In data set [2] (setting [7]), the IC50 was 2 µM.
Consider `CN1C(=O)C=CC1=O` [NMM, N-methyl-maleimide], for which the “antagonism of etoposide and daunorubicin mediated cytotoxicity” value in data set [1] is listed as “effectively blocked”. Also, the IC50 in data set [1] is 4 µM; in data set [2] (setting [9]), about 4 µM; in data set [2] (setting [7]), 5 µM. Moreover, in data set [2], the “inhibition … in words” value is on record as “Very potent,”.
Turning to `CCN1C(=O)C=CC1=O` [NEM, N-ethyl-maleimide], the “DNA damage by the compound itself” value with OC—NYH cells (concentrations up to 250 uM) is “Only limited DNA”. Besides, the IC50 is 4 µM in data set [1], about 4 µM in data set [2] (setting [9]) and 5 µM in data set [2] (setting [7]). Moreover, the entries for the “antagonism of etoposide induced DNA cleavage” value in data set [4] and in data set [4] (setting [8]) were “capable of antagonising” and “Strong”, respectively. In addition, the “stimulation of topoisomerase II mediated DNA cleavage” value in data set [4] is reported as “does not stimulate”. In addition, in data set [2], the “inhibition … in words” value was “Very potent,”.
In the case of `CC(CNC1CC(=O)NC1=O)NC1CC(=O)NC1=O` (stereo not shown) [I-112], the “inhibition of VP-16 induced SSBs” value with OC—NYH cells (compound at 250 uM, FIG. 4: etoposide 3 μM) was “reversal; also recorded: Effective inhibition of”. Besides, in data set [1], the “protection against VP-16 toxicity” value is given as “VPneg” and the “inhibition of the toxicity … (protection)” value is reported as “able to protect; also recorded: Inhibits the toxicity of”. Moreover, in data set [1] (setting [10]), the protection class entry was “DAU(0.3[…]uM)+ up to (The + indicates, that the protection. i.e. log(number of surviving cells) is about 1.)” and the survival is recorded as at most 20% survival. Further, in data set [1] (compound alone), the LD10 result is “LD10 = 75 uM”. The toxic to cells entry in data set [1] (compound given alone) is recorded as “no cytotoxicity; also recorded: Not toxic to cells”. Moreover, the “inhibition … in words” value in data set [2] is “effectively. IC50 about”. In addition, in data set [2] (setting [7]), the IC50 was about 100 µM.

A word on the IC50: it is the midpoint of a concentration-inhibition curve.
